Measured values published in patent publication US20100003250A1, “(2-ARYL-7H-PYRROLO[2,3-D]PYRIMIDIN-4-YL)MORPHOLINE COMPOUNDS, THEIR USE AS MTOR KINASE AND PI3 KINASE INHIBITORS, AND THEIR SYNTHESES” (Wyeth, priority 2008, published 2010).

Assays:
Assay type in all cases: biochemical
PI3Kγ = PI3Kγ (Homo sapiens, UniProt P48736); experiment: PI3K-gamma fluorescence polarization assay; conditions: 20 μM PIP2, 25 μM ATP; read-out: PI3Kγ Median IC50
Protocol: PI3K-alpha and PI3K-gamma Fluorescence Polarization Assay Protocols
The reaction buffer was 20 mM HEPES pH 7.5, 2 mM MgCl2, 0.05% CHAPS, and 0.01% βME (added fresh). The substrate solution was 40 μM PIP2 (diC8, Echelon, Salt Lake City Utah cat # P-4508, 1 mM in water) and 50 μM ATP in the reaction buffer. Nunc 384-well black polypropylene fluorescent plates were used for PI3K assays. The assay is run by putting 9.5 μl of freshly diluted enzyme in the reaction buffer per well, adding 0.5 μl of diluted drug or DMSO, and mixing. Then 10 μl of the substrate solution is added to each well to start the reaction. A final concentration of 20 μM PIP2 and 25 μM ATP in the reaction was used. Reactions were allowed to proceed for 30-60 minutes at room temperature. After 30-60 minutes, 20 μl of a solution of 10 nM TAMRA detector (Red detector probe-Echelon) and 2.5 μM of GST-murineGRP (1.5 mg/ml in 17% glycerol) was added per well to stop the reaction. The resulting solution was mixed well and allowed to stand for 90-110 minutes before reading plate. Assay Plates were read on Perkin-Elmer Envision plate readers with appropriate filters for Tamra [BODIPY-TMRI(1,3,4,5)P4]. Data obtained were used to calculate enzymatic activity and enzyme inhibition by inhibitor compounds. It is important to keep Red probe solutions dark. This procedure is adapted from Echelon Biosciences Inc procedure for their PI3-Kinase fluorescence polarization activity Assay kit Product number K-1100.

PI3Kα = PI3Kα (Homo sapiens, UniProt P42336); experiment: PI3K-alpha fluorescence polarization assay; conditions: 20 μM PIP2, 25 μM ATP; read-out: PI3Kα Median IC50
mTOR Kinase (FLAG-TOR) = target: T1, mTOR Kinase (FLAG-TOR) (Homo sapiens, UniProt P42345); experiment: mTOR kinase assay, purified enzyme, DELFIA format; conditions: 100 μM ATP, 1.25 μM His6-S6K; read-out: mTOR Kinase Median IC50
T1 construct: FLAG

Sequence of PI3Kα (P42336 whole entry, species assumed): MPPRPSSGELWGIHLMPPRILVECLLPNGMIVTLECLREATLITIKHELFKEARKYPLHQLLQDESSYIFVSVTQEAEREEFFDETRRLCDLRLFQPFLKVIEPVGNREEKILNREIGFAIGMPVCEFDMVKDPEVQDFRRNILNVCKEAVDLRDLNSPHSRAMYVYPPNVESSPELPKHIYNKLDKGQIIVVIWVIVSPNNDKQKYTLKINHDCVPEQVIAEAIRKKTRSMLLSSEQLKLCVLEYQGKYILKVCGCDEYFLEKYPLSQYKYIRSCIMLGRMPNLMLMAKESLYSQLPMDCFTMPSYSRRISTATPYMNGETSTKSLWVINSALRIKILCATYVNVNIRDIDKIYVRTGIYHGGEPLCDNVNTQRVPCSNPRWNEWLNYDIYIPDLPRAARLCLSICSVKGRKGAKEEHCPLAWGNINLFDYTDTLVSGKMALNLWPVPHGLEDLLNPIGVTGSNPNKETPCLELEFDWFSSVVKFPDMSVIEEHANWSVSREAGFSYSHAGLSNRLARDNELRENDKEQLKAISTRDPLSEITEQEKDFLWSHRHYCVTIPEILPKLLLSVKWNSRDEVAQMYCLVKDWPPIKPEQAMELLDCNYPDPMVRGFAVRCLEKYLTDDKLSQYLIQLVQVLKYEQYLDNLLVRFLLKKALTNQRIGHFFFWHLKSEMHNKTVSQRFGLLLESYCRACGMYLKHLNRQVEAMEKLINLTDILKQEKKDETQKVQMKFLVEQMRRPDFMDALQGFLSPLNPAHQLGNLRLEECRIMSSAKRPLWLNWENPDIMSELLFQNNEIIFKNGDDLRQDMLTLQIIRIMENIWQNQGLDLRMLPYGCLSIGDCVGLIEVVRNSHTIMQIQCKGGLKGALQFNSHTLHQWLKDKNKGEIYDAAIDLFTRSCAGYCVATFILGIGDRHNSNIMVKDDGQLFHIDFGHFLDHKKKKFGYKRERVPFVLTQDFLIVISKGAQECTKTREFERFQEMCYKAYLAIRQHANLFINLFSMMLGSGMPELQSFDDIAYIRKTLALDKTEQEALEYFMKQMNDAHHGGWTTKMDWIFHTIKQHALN
Sequence of PI3Kα (P27986 whole entry partner, species assumed): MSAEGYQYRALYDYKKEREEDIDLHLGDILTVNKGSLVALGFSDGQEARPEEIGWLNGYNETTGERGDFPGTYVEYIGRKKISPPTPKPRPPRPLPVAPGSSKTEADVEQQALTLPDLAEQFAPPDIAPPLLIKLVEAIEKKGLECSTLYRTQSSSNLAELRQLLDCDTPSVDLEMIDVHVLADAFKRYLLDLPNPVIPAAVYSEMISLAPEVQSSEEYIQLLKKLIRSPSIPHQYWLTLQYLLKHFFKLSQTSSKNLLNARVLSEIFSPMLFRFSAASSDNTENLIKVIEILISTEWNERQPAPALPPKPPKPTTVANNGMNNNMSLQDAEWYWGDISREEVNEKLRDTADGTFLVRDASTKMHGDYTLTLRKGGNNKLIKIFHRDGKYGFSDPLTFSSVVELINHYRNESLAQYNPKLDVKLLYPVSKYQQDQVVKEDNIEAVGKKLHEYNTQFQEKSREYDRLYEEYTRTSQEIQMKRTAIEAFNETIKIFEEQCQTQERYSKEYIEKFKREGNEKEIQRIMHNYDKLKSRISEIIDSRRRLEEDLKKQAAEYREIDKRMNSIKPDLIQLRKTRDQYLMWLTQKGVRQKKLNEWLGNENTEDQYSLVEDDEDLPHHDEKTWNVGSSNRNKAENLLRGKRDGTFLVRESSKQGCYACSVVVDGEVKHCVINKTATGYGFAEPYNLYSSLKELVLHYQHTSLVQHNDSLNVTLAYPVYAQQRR
Sequence of PI3Kγ (P48736 whole entry, species assumed): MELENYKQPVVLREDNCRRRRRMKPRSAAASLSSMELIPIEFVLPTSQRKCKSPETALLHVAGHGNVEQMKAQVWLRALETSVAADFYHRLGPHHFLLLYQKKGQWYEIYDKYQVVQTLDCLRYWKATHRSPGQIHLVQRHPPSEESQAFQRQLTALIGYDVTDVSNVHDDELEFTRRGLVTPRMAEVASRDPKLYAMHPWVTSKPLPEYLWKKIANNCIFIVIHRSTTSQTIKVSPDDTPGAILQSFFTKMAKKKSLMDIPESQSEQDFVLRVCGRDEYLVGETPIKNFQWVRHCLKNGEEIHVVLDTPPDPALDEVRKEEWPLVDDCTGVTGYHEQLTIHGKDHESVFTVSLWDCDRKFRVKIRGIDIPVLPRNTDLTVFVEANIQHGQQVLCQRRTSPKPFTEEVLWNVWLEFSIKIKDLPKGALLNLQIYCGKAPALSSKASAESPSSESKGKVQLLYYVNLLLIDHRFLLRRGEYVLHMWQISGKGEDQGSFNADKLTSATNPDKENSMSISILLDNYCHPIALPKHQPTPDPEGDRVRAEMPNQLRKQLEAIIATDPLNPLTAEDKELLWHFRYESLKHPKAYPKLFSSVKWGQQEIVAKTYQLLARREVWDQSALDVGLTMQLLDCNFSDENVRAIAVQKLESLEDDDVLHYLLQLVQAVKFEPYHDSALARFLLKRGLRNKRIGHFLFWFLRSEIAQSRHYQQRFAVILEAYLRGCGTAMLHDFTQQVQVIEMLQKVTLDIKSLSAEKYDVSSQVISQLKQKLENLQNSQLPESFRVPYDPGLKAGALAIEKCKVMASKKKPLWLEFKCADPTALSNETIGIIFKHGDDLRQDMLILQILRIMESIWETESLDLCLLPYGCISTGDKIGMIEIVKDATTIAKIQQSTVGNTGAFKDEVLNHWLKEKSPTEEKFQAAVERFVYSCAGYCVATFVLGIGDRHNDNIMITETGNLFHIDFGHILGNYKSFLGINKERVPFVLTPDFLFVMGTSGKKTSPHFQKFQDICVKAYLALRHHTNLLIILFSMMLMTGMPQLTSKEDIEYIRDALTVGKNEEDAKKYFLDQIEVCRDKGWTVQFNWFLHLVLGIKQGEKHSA

SMILES | IC50 (PI3Kγ) [nM] | IC50 (PI3Kα) [nM] | IC50 (mTOR Kinase (FLAG-TOR)) [nM]
OCc1cccc(-c2nc(N3CCOCC3)c3cc[nH]c3n2)c1 [Compound 1, [3-(4-morpholin-4-yl-7H-pyrrolo[2,3-d]pyrimidin-2-yl)phenyl]methanol] | 752 |  | 
c1cc(-c2nc(N3CCOCC3)c3cc[nH]c3n2)c2cn[nH]c2c1 [Compound 3, 2-(1H-indazol-4-yl)-4-morpholin-4-yl-7H-pyrrolo[2,3-d]pyrimidine] | 10800 | 830 | 1200
O=C(Nc1ccncc1)Nc1ccc(-c2nc(N3CCOCC3)c3cc[nH]c3n2)cc1 [Compound 4, 1-[4-(4-morpholin-4-yl-7H-pyrrolo[2,3-d]pyrimidin-2-yl)phenyl]-3-pyridin-4-ylurea] | 65 |  | 
O=C(Nc1ccc(-c2nc(N3CCOCC3)c3cc[nH]c3n2)cc1)Nc1cccnc1 [Compound 5, 1-[4-(4-morpholin-4-yl-7H-pyrrolo[2,3-d]pyrimidin-2-yl)phenyl]-3-pyridin-3-ylurea] | 78 | 15 | 1.7
CN(C)CCn1cc(C(=O)Nc2cccnc2)c2c(N3CCOCC3)nc(-c3ccc(NC(=O)Nc4cccnc4)cc3)nc21 [Compound 10, 7-[2-(dimethylamino)ethyl]-4-morpholin-4-yl-N-pyridin-3-yl-2-{4-[(pyridin-3-ylcarbamoyl)amino]phenyl}-7H-pyrrolo[2,3-d]pyrimidine-5-carboxamide] | 72 | 16 | 0.88
COC(Cn1ccc2c(N3CCOCC3)nc(-c3ccc(NC(=O)Nc4ccncc4)cc3)nc21)OC [Compound 21, 1-{4-[7-(2,2-dimethoxyethyl)-4-morpholin-4-yl-7H-pyrrolo[2,3-d]pyrimidin-2-yl]phenyl}-3-pyridin-4-ylurea] | 170 |  | 
O=CCn1ccc2c(N3CCOCC3)nc(-c3ccc(NC(=O)Nc4ccncc4)cc3)nc21 [Compound 22, 1-{4-[4-morpholin-4-yl-7-(2-oxoethyl)-7H-pyrrolo[2,3-d]pyrimidin-2-yl]phenyl}-3-pyridin-4-ylurea] | 7 |  | 
O=C(Nc1ccncc1)Nc1ccc(-c2nc(N3CCOCC3)c3ccn(CCN4CCCC4)c3n2)cc1 [Compound 23, 1-{4-[4-morpholin-4-yl-7-(2-pyrrolidin-1-ylethyl)-7H-pyrrolo[2,3-d]pyrimidin-2-yl]phenyl}-3-pyridin-4-ylurea] | 370 |  | 
O=C(Nc1ccncc1)Nc1ccc(-c2nc(N3CCOCC3)c3ccn(CCN4CCCCC4)c3n2)cc1 [Compound 24, 1-{4-[4-morpholin-4-yl-7-(2-piperidin-1-ylethyl)-7H-pyrrolo[2,3-d]pyrimidin-2-yl]phenyl}-3-pyridin-4-ylurea] | 774 |  | 
CN(C)CCNCCn1ccc2c(N3CCOCC3)nc(-c3ccc(NC(=O)Nc4ccncc4)cc3)nc21 [Compound 27, 1-{4-[7-(2-{[2-(dimethylamino)ethyl]amino}ethyl)-4-morpholin-4-yl-7H-pyrrolo[2,3-d]pyrimidin-2-yl]phenyl}-3-pyridin-4-ylurea] | 424 |  | 
CN1CCN(CCn2ccc3c(N4CCOCC4)nc(-c4ccc(NC(=O)Nc5ccncc5)cc4)nc32)CC1 [Compound 28, 1-(4-{7-[2-(4-methylpiperazin-1-yl)ethyl]-4-morpholin-4-yl-7H-pyrrolo[2,3-d]pyrimidin-2-yl}phenyl)-3-pyridin-4-ylurea] | 317 |  | 24
O=C(Nc1ccncc1)Nc1ccc(-c2nc(N3CCOCC3)c3ccn(CCN4CCNCC4)c3n2)cc1 [Compound 29, 1-{4-[4-morpholin-4-yl-7-(2-piperazin-1-ylethyl)-7H-pyrrolo[2,3-d]pyrimidin-2-yl]phenyl}-3-pyridin-4-ylurea] | 36 |  | 
O=C(Nc1ccncc1)Nc1ccc(-c2nc(N3CCOCC3)c3ccn(CCO)c3n2)cc1 [Compound 34, 1-{4-[7-(2-hydroxyethyl)-4-morpholin-4-yl-7H-pyrrolo[2,3-d]pyrimidin-2-yl]phenyl}-3-pyridin-4-ylurea] | 40 | 4 | 
O=C(Nc1ccncc1)Nc1ccc(-c2nc(N3CCOCC3)c3ccn(CC(F)(F)F)c3n2)cc1 [Compound 36, 1-{4-[4-morpholin-4-yl-7-(2,2,2-trifluoroethyl)-7H-pyrrolo[2,3-d]pyrimidin-2-yl]phenyl}-3-pyridin-4-ylurea] | 63 |  | 
CN(C)CCN(C)C(=O)c1ccc(NC(=O)Nc2ccc(-c3nc(N4CCOCC4)c4ccn(CC(F)(F)F)c4n3)cc2)cc1 [Compound 51, N-[2-(dimethylamino)ethyl]-N-methyl-4-[({4-[4-morpholin-4-yl-7-(2,2,2-trifluoroethyl)-7H-pyrrolo[2,3-d]pyrimidin-2-yl]phenyl}carbamoyl)amino]benzamide] | 14 |  | 0.48
CN(C)C1CCN(C(=O)c2ccc(NC(=O)Nc3ccc(-c4nc(N5CCOCC5)c5ccn(CC(F)(F)F)c5n4)cc3)cc2)CC1 [Compound 57, 1-(4-{[4-(dimethylamino)piperidin-1-yl]carbonyl}phenyl)-3-{4-[4-morpholin-4-yl-7-(2,2,2-trifluoroethyl)-7H-pyrrolo[2,3-d]pyrimidin-2-yl]phenyl}urea] | 27 |  | 1.7

Further lines, results first:

IC50 (PI3Kγ) [nM] | IC50 (PI3Kα) [nM] | IC50 (mTOR Kinase (FLAG-TOR)) [nM] | SMILES
338 |  |  | Oc1cccc(-c2nc(N3CCOCC3)c3cc[nH]c3n2)c1 [Compound 2, 3-(4-morpholin-4-yl-7H-pyrrolo[2,3-d]pyrimidin-2-yl)phenol]
1680 |  | > 800 | CN(C)CCn1ccc2c(N3CCOCC3)nc(-c3cccc(O)c3)nc21 [Compound 6, 3-{7-[2-(dimethylamino)ethyl]-4-morpholin-4-yl-7H-pyrrolo[2,3-d]pyrimidin-2-yl}phenol]
712 |  | > 800 | CN(C)CCn1ccc2c(N3CCOCC3)nc(-c3cccc(CO)c3)nc21 [Compound 7, (3-{7-[2-(dimethylamino)ethyl]-4-morpholin-4-yl-7H-pyrrolo[2,3-d]pyrimidin-2-yl}phenyl)methanol]
> 10000 | 2980 | > 3750 | CN(C)CCn1ccc2c(N3CCOCC3)nc(-c3ccc(N)cc3)nc21 [Compound 8, 4-{7-[2-(dimethylamino)ethyl]-4-morpholin-4-yl-7H-pyrrolo[2,3-d]pyrimidin-2-yl}aniline]
102 |  | 2.95 | CN(C)CCn1ccc2c(N3CCOCC3)nc(-c3ccc(NC(=O)Nc4cccnc4)cc3)nc21 [Compound 9, 1-(4-{7-[2-(dimethylamino)ethyl]-4-morpholin-4-yl-7H-pyrrolo[2,3-d]pyrimidin-2-yl}phenyl)-3-pyridin-3-ylurea]
626 |  |  | CN(C)CCn1ccc2c(N3CCOCC3)nc(-c3ccc(NC(=O)Nc4ccccn4)cc3)nc21 [Compound 11, 1-(4-{7-[2-(dimethylamino)ethyl]-4-morpholin-4-yl-7H-pyrrolo[2,3-d]pyrimidin-2-yl}phenyl)-3-pyridin-2-ylurea]
36 | 11 |  | CN(C)CCn1ccc2c(N3CCOCC3)nc(-c3ccc(NC(=O)Nc4ccncc4)cc3)nc21 [Compound 12, 1-(4-{7-[2-(dimethylamino)ethyl]-4-morpholin-4-yl-7H-pyrrolo[2,3-d]pyrimidin-2-yl}phenyl)-3-pyridin-4-ylurea]
176 |  | 7.75 | CN(C)CCn1ccc2c(N3CCOCC3)nc(-c3ccc(NC(=O)Nc4ccc(F)cc4)cc3)nc21 [Compound 13, 1-(4-{7-[2-(dimethylamino)ethyl]-4-morpholin-4-yl-7H-pyrrolo[2,3-d]pyrimidin-2-yl}phenyl)-3-(4-fluorophenyl)urea]
554 | 78 | 2150 | CN(C)CCNC(=O)Nc1ccc(-c2nc(N3CCOCC3)c3ccn(CCN(C)C)c3n2)cc1 [Compound 14, 1-[2-(dimethylamino)ethyl]-3-(4-{7-[2-(dimethylamino)ethyl]-4-morpholin-4-yl-7H-pyrrolo[2,3-d]pyrimidin-2-yl}phenyl)urea]
4360 | 162 | 3400 | CN(C)CCCNC(=O)Nc1ccc(-c2nc(N3CCOCC3)c3ccn(CCN(C)C)c3n2)cc1 [Compound 15, 1-(4-{7-[2-(dimethylamino)ethyl]-4-morpholin-4-yl-7H-pyrrolo[2,3-d]pyrimidin-2-yl}phenyl)-3-[3-(dimethylamino)propyl]urea]
538 |  | 30 | CCNC(=O)Nc1ccc(-c2nc(N3CCOCC3)c3ccn(CCN(C)C)c3n2)cc1 [Compound 16, 1-(4-{7-[2-(dimethylamino)ethyl]-4-morpholin-4-yl-7H-pyrrolo[2,3-d]pyrimidin-2-yl}phenyl)-3-ethylurea]
813 |  | 33 | CNC(=O)Nc1ccc(-c2nc(N3CCOCC3)c3ccn(CCN(C)C)c3n2)cc1 [Compound 17, 1-(4-{7-[2-(dimethylamino)ethyl]-4-morpholin-4-yl-7H-pyrrolo[2,3-d]pyrimidin-2-yl}phenyl)-3-methylurea]
